Results taken from the kinase profiling compilation of Christmann-Franck et al. (2016).

What was measured:
Assay in all cases: radiometric filter-binding kinase assay, Kinase HotSpot
Conditions in all cases: compound 0.5 µM; ATP 10 µM
CHUK (human) = CHUK (human) (UniProt O15111)
BRAF (human) = BRAF (human) (UniProt P15056)
ACVR1B (human) = ACVR1B (human) (UniProt P36896)
DAPK1 (human) = DAPK1 (human) (UniProt P53355)
ERBB4 (human) = ERBB4 (human) (UniProt Q15303)
CSNK1E (human) = CSNK1E (human) (UniProt P49674)
PRKCB2 (human) = PRKCB2 (human) (UniProt P05771)
[1] = molecular target: TYK2 JH1 catalytic (human) (UniProt P29597)
PASK (human) = PASK (human) (UniProt Q96RG2)
FGFR1 (human) = FGFR1 (human) (UniProt P11362)
Sequence of FGFR1 (human) (P11362 whole entry, looked up): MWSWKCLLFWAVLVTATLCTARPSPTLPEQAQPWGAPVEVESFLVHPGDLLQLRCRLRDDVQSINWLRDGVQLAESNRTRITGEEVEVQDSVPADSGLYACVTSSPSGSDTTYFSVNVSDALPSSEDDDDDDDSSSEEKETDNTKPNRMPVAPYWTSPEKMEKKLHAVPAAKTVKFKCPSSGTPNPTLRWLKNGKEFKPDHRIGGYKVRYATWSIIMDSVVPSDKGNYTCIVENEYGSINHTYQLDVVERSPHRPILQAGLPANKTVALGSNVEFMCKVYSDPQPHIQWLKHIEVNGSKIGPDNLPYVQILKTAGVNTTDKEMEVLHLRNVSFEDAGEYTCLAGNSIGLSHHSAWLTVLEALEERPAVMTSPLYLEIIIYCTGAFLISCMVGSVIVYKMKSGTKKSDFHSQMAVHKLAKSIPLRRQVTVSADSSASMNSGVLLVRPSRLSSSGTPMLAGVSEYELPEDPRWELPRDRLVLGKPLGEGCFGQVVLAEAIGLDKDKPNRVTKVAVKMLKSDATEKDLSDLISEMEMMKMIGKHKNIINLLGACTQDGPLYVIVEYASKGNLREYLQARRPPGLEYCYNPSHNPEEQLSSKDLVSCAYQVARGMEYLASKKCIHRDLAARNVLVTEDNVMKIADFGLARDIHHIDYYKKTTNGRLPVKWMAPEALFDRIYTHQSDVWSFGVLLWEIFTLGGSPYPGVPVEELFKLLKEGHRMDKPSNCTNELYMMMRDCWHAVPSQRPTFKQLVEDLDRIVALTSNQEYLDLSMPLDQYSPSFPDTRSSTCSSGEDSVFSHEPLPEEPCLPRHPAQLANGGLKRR

OXSR1 (human) = OXSR1 (human) (UniProt O95747)
Sequence of OXSR1 (human) (O95747 whole entry, looked up): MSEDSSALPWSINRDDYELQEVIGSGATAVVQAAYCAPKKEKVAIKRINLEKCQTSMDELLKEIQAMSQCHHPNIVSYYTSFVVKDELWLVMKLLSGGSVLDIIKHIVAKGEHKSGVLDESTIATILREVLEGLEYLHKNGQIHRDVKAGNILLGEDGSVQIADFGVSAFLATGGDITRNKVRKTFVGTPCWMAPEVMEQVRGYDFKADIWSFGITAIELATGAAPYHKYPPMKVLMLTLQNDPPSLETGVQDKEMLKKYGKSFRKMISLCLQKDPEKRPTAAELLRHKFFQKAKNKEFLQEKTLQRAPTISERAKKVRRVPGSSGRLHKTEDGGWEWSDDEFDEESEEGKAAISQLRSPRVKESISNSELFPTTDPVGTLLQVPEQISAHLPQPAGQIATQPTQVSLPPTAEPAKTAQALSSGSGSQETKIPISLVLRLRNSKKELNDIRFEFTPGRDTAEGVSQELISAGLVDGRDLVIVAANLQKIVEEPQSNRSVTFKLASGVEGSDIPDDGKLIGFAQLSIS

GRK7 (human) = GRK7 (human) (UniProt Q8WTQ7)
CLK2 (human) = CLK2 (human) (UniProt P49760)
Sequence of CLK2 (human) (P49760 whole entry, looked up): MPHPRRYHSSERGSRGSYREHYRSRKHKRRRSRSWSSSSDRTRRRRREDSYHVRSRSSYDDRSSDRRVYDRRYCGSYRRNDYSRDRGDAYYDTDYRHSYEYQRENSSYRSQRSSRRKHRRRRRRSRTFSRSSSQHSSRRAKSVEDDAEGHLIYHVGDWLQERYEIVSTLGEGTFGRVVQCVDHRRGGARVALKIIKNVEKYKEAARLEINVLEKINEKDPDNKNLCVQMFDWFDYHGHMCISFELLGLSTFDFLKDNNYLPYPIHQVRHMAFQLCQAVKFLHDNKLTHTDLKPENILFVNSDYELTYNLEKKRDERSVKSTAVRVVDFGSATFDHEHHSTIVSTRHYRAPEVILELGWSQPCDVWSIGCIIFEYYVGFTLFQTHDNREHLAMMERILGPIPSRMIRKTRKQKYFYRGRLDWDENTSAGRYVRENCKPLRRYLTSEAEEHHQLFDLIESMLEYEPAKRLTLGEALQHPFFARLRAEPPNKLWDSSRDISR

PRKCZ (human) = PRKCZ (human) (UniProt Q05513)
PLK1 (human) = PLK1 (human) (UniProt P53350)
PKN2 (human) = PKN2 (human) (UniProt Q16513)
RPS6KA3 KD1 KD2 (human) = RPS6KA3 KD1 KD2 (human) (UniProt P51812)
NUAK1 (human) = NUAK1 (human) (UniProt O60285)
ZAP70 (human) = ZAP70 (human) (UniProt P43403)
ERBB2 (human) = ERBB2 (human) (UniProt P04626)
CSNK2A2 (human) = CSNK2A2 (human) (UniProt P19784)
LCK (human) = LCK (human) (UniProt P06239)
AURKB (human) = AURKB (human) (UniProt Q96GD4)
STK33 (human) = STK33 (human) (UniProt Q9BYT3)
DDR2 (human) = DDR2 (human) (UniProt Q16832)
MYLK (human) = MYLK (human) (UniProt Q15746)
MAP2K1 (human) = MAP2K1 (human) (UniProt Q02750)
Sequence of MAP2K1 (human) (Q02750 whole entry, looked up): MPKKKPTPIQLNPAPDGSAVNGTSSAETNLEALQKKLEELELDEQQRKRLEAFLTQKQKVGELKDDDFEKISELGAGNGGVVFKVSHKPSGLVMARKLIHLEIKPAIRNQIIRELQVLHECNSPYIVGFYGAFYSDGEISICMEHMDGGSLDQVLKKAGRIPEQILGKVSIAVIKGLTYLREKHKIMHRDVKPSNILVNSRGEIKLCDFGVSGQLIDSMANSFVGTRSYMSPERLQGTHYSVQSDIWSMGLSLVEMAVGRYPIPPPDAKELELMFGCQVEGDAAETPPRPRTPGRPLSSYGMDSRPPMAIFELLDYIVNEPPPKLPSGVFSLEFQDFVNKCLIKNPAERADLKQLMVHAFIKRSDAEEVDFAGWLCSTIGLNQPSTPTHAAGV

CAMK1D (human) = CAMK1D (human) (UniProt Q8IU85)
MAPK10 (human) = MAPK10 (human) (UniProt P53779)
CDK1 CCNA2 (human) = CDK1 CCNA2 (human) (UniProt P06493+P20248)
JAK2 JH1 JH2 (human) = JAK2 JH1 JH2 (human) (UniProt O60674)
NEK6 (human) = NEK6 (human) (UniProt Q9HC98)
MAP3K14 (human) = MAP3K14 (human) (UniProt Q99558)
PTK2B (human) = PTK2B (human) (UniProt Q14289)
FGFR2 (human) = FGFR2 (human) (UniProt P21802)
WNK2 (human) = WNK2 (human) (UniProt Q9Y3S1)
Sequence of WNK2 (human) (Q9Y3S1 whole entry, looked up): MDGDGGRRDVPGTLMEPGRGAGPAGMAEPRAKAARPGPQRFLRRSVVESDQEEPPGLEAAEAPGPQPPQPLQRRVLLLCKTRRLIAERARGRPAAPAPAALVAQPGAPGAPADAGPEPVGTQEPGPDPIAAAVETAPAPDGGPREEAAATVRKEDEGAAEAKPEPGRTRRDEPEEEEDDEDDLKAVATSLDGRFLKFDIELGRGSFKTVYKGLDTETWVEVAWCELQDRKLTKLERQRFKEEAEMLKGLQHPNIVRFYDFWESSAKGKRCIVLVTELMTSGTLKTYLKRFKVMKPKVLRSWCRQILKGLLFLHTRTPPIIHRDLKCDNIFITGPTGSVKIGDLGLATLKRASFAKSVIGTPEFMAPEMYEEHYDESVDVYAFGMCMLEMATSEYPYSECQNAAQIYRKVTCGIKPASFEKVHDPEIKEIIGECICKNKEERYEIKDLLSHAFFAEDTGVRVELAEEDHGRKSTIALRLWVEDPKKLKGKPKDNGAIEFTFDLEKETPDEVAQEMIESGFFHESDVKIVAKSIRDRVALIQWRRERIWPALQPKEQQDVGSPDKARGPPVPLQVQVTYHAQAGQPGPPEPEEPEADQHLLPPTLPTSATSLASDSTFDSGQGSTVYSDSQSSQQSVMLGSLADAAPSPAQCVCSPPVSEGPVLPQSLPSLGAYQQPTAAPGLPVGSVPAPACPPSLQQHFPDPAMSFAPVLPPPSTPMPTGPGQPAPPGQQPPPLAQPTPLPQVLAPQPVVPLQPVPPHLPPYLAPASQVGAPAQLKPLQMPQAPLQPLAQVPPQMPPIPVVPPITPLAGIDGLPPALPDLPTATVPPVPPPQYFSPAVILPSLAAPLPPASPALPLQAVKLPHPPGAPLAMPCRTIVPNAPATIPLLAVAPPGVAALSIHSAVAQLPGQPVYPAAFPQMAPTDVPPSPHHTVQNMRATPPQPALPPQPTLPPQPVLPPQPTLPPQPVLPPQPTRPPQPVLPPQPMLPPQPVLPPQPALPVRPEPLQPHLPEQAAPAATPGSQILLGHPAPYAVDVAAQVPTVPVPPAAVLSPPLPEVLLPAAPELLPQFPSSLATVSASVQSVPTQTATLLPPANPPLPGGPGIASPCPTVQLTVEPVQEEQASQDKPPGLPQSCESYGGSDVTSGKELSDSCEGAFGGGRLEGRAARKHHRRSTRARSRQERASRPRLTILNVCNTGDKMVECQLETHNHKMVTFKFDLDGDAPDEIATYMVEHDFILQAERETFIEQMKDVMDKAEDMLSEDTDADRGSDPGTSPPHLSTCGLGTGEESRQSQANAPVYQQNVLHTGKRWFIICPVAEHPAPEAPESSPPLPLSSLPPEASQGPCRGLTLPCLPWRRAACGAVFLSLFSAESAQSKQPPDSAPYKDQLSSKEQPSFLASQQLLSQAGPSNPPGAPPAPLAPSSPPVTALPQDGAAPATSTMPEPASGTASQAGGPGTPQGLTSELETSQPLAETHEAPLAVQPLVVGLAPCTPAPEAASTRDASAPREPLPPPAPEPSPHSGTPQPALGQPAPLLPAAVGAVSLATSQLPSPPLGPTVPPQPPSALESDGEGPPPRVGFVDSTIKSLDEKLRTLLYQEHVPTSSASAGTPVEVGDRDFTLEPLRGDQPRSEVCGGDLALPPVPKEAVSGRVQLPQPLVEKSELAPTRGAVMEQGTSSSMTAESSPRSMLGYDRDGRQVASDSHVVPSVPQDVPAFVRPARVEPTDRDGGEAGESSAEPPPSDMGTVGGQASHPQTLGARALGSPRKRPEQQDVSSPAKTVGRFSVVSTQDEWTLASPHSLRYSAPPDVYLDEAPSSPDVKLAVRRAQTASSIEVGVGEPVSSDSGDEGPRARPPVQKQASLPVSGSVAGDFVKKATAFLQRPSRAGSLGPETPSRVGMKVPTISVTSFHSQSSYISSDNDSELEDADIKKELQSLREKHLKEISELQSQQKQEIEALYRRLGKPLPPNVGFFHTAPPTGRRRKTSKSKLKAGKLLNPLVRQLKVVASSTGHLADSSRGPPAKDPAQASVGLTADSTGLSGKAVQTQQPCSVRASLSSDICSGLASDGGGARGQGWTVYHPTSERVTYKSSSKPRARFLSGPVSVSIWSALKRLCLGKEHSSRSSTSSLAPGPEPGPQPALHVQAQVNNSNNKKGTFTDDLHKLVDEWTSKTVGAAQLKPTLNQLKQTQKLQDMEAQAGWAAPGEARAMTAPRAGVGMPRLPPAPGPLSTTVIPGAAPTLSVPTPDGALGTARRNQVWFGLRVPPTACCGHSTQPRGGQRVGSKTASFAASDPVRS

CDK6 CCND1 (human) = CDK6 CCND1 (human) (UniProt Q00534+P24385)
ROCK2 (human) = ROCK2 (human) (UniProt O75116)
MAP3K11 (human) = MAP3K11 (human) (UniProt Q16584)

Sequence of ACVR1B (human) (P36896 whole entry, looked up): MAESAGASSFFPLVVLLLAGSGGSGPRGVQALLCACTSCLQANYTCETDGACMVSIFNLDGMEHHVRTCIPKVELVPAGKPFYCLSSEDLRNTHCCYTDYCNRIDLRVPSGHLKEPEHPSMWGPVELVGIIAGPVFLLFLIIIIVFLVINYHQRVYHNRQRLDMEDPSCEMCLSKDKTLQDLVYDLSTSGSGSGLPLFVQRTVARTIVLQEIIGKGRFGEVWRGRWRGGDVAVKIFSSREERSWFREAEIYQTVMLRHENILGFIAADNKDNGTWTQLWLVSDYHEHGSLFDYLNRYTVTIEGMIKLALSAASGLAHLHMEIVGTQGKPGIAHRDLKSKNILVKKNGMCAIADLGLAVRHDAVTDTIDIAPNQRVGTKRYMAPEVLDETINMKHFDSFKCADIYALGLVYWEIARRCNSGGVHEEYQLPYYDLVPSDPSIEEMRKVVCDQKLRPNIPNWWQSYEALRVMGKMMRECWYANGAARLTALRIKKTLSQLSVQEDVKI

SMILES | residual activity (CHUK (human)) | residual activity (BRAF (human)) | residual activity (ACVR1B (human)) | residual activity (DAPK1 (human)) | residual activity (ERBB4 (human)) | residual activity (CSNK1E (human)) | residual activity (PRKCB2 (human)) | residual activity [1] | residual activity (PASK (human)) | residual activity (FGFR1 (human)) | residual activity (OXSR1 (human)) | residual activity (GRK7 (human)) | residual activity (CLK2 (human)) | residual activity (PRKCZ (human)) | residual activity (PLK1 (human)) | residual activity (PKN2 (human)) | residual activity (RPS6KA3 KD1 KD2 (human)) | residual activity (NUAK1 (human)) | residual activity (ZAP70 (human)) | residual activity (ERBB2 (human)) | further results
COc1ccc(COc2ccc(Cc3cnc(N)nc3N)cc2OC)cc1 | 94.7% | 99% | 97.8% | 102% | 110% | 97.1% | 110% | 97.6% | 103% | 108% | 103% | 104% | 94.3% | 93.4% | 97.1% | 90.9% | 105% | 106% | 94.3% | 106% | residual activity (CSNK2A2 (human)): 97.4%; residual activity (LCK (human)): 96.3%; residual activity (AURKB (human)): 104%; residual activity (STK33 (human)): 96.4%; residual activity (DDR2 (human)): 99.6%; residual activity (MYLK (human)): 95.7%; residual activity (MAP2K1 (human)): 98.6%; residual activity (CAMK1D (human)): 93%; residual activity (MAPK10 (human)): 84.4%; residual activity (CDK1 CCNA2 (human)): 98.7%; residual activity (JAK2 JH1 JH2 (human)): 89.2%; residual activity (NEK6 (human)): 99.4%; residual activity (MAP3K14 (human)): 81.8%; residual activity (PTK2B (human)): 86.1%; residual activity (FGFR2 (human)): 102%; residual activity (WNK2 (human)): 94.6%; residual activity (CDK6 CCND1 (human)): 101%; residual activity (ROCK2 (human)): 84.1%; residual activity (MAP3K11 (human)): 101%
COc1cc2ncnc(Nc3cccc(Cl)c3)c2cc1OC | 103% | 96% | 98% | 108% | 35.5% | 75.3% | 95.5% | 98.1% | 90.2% | 84.9% | 92% | 85.4% | 89.6% | 102% | 105% | 89.8% | 87.8% | 75.8% | 102% | 22.5% | residual activity (CSNK2A2 (human)): 92.3%; residual activity (LCK (human)): 74.9%; residual activity (AURKB (human)): 74.4%; residual activity (STK33 (human)): 88.3%; residual activity (DDR2 (human)): 99.2%; residual activity (MYLK (human)): 89%; residual activity (MAP2K1 (human)): 98.5%; residual activity (CAMK1D (human)): 96.6%; residual activity (MAPK10 (human)): 89%; residual activity (CDK1 CCNA2 (human)): 94.9%; residual activity (JAK2 JH1 JH2 (human)): 97.4%; residual activity (NEK6 (human)): 105%; residual activity (MAP3K14 (human)): 107%; residual activity (PTK2B (human)): 85.3%; residual activity (FGFR2 (human)): 97.5%; residual activity (WNK2 (human)): 98.6%; residual activity (CDK6 CCND1 (human)): 92.5%; residual activity (ROCK2 (human)): 92.6%; residual activity (MAP3K11 (human)): 84.1%
CCN(CC)CCNC(=O)c1c(C)[nH]c(/C=C2\C(=O)Nc3ccc(F)cc32)c1C | 92.4% | 106% | 101% | 66.9% | 94.8% | 46.9% | 104% | 52.6% | 102% | 66.1% | 105% | 71.3% | 13.6% | 91.7% | 96.4% | 89.1% | 35.5% | 2.75% | 97.2% | 105% | residual activity (CSNK2A2 (human)): 92.2%; residual activity (AURKB (human)): 48.7%; residual activity (STK33 (human)): 31.8%; residual activity (DDR2 (human)): 154%; residual activity (MYLK (human)): 25.6%; residual activity (MAP2K1 (human)): 67.8%; residual activity (MAPK10 (human)): 99.5%; residual activity (CDK1 CCNA2 (human)): 98.4%; residual activity (JAK2 JH1 JH2 (human)): 88.8%; residual activity (NEK6 (human)): 89%; residual activity (MAP3K14 (human)): 127%; residual activity (PTK2B (human)): 38.3%; residual activity (FGFR2 (human)): 50.5%; residual activity (WNK2 (human)): 100%; residual activity (CDK6 CCND1 (human)): 50.5%; residual activity (ROCK2 (human)): 72.1%; residual activity (MAP3K11 (human)): 68.4%
